Earlier results on one compound are cited in patent publication US12569183B2 (University Of Maryland, Baltimore, priority 2018, dated 2026).

SMILES strings stand for the structures.

For data set [1] the following is noted: rapid IV infusions; hypotension, dyspnea, QT prolongation.
The conditions of data set [2]: clinical trials; median baseline QTc 405 msec.
The conditions of data set [3]: administered twice daily, steady state on day 3.

Take `CC(C)NCC(O)c1ccc(NS(C)(=O)=O)cc1` (stereo not drawn) [sotalol]: in data set [1], the adverse events entry is “only mild to moderate adverse events”. In data set [2], the “slope of the concentration QTc relationship” value was 0.0158 ms/ng/mL. The “number of doses until steady-state exposures” value in data set [3] was 4-5 doses.
